Consider 31 molecules from patent US9840500B2, “Compounds as dual inhibitors of histone methyltransferases and DNA methyltransferases” (FUNDACIÓN PARA LA INVESTIGACIÓN MÉDICA APLICADA, priority 2014, dated 2017).

Structures can show the parent of a compound that is named as a salt.

One test deals with T1, human G9a enzyme (Homo sapiens, UniProt Q96KQ7).
T1 sequence (Q96KQ7 1-1210): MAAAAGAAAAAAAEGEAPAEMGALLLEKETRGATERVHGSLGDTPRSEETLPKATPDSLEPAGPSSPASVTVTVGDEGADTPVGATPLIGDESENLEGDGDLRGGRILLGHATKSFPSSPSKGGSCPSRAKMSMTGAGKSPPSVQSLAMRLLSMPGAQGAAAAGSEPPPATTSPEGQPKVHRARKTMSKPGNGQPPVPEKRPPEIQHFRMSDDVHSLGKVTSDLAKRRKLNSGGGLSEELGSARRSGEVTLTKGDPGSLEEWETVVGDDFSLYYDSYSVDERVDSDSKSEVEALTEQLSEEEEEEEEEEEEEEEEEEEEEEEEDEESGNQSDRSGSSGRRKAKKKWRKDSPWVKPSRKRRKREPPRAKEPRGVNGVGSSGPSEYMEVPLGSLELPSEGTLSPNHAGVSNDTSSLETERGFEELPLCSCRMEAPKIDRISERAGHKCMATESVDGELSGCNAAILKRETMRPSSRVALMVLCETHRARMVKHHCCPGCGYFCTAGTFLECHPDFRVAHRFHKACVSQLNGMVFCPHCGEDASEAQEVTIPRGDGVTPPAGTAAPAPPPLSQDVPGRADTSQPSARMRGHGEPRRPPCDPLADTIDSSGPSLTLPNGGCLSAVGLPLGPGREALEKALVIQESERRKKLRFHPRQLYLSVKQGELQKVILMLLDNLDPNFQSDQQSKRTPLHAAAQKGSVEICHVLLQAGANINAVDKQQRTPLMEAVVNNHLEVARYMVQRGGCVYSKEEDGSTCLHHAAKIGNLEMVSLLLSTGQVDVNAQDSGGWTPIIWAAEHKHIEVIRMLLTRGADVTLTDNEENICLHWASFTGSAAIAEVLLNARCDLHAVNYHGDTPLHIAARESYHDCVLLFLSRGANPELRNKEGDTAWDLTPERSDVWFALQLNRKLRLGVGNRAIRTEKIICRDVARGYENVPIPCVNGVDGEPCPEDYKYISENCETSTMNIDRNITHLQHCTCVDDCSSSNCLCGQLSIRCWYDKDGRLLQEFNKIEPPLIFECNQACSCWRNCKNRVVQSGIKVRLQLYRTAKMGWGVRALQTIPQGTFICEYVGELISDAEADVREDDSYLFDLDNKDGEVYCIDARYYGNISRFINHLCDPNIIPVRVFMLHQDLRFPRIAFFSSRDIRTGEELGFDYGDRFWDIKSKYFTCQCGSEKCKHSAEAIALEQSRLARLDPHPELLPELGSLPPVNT
Description: G9a enzyme activity assay (TR-FRET). Type of test: biochemical. Here is the method: The biochemical assay to measure G9a enzyme activity relies on time-resolved fluorescence energy transfer (TR-FRET) between europium cryptate (donor) and XL665 (acceptor). […] The human G9a enzyme expressed in a baculovirus infected Sf9 cell expression system was obtained from BPS Biosciences (Cat. #51001). […] Final percentage of DMSO was 0.5%. • 2 μl of 1 nM G9a enzyme diluted in assay buffer. […] Final concentration 150 nM. • Then, add 5 μl of streptavidin XL665 beads. Final concentration of 16 μM. • Read the plate after 1 hour of incubation at room temperature.
(§1) For each well, fluorescence was measured at 620 nm and 665 nm. A ratio (665 nm/620 nm) was then calculated in order to minimize medium interferences. Positive control was obtained in the presence of the vehicle of the compounds. Negative control was obtained in the absence of G9a enzyme activity. Calculated IC50 values were determined using GraphPrism using 4-parameters inhibition curve.

The target of a further test is DNMT1 (Homo sapiens, UniProt P26358). As to the kind of experiment: DNMT1 enzyme activity assay (TR-FRET, EPIgeneous methyltransferase assay). Type of test: biochemical. The method, then:
The biochemical assay to measure DNMT1 enzyme activity relies on time-resolved fluorescence energy transfer (TR-FRET) between lumi4-Tb (donor) and d2 (acceptor) using the EPIgeneous methyltransferase assay (CisBio Cat#62SAHPEB). […] TR-FRET signal is inversely proportional to the concentration of SAH, product of DNMT1 enzyme activity, in the sample.
The human DNMT1 was obtained from Reaction Biology Corp. (Cat# DMT-21-124). […] Final percentage of DMSO was 0.5%. • 2 μl of 1 nM DNMT1 enzyme diluted in assay buffer.
as §1
A general note: TR-FRET usually uses a lanthanide donor and a delayed reading to cut background.

DNMT1, sequence (P26358 whole entry): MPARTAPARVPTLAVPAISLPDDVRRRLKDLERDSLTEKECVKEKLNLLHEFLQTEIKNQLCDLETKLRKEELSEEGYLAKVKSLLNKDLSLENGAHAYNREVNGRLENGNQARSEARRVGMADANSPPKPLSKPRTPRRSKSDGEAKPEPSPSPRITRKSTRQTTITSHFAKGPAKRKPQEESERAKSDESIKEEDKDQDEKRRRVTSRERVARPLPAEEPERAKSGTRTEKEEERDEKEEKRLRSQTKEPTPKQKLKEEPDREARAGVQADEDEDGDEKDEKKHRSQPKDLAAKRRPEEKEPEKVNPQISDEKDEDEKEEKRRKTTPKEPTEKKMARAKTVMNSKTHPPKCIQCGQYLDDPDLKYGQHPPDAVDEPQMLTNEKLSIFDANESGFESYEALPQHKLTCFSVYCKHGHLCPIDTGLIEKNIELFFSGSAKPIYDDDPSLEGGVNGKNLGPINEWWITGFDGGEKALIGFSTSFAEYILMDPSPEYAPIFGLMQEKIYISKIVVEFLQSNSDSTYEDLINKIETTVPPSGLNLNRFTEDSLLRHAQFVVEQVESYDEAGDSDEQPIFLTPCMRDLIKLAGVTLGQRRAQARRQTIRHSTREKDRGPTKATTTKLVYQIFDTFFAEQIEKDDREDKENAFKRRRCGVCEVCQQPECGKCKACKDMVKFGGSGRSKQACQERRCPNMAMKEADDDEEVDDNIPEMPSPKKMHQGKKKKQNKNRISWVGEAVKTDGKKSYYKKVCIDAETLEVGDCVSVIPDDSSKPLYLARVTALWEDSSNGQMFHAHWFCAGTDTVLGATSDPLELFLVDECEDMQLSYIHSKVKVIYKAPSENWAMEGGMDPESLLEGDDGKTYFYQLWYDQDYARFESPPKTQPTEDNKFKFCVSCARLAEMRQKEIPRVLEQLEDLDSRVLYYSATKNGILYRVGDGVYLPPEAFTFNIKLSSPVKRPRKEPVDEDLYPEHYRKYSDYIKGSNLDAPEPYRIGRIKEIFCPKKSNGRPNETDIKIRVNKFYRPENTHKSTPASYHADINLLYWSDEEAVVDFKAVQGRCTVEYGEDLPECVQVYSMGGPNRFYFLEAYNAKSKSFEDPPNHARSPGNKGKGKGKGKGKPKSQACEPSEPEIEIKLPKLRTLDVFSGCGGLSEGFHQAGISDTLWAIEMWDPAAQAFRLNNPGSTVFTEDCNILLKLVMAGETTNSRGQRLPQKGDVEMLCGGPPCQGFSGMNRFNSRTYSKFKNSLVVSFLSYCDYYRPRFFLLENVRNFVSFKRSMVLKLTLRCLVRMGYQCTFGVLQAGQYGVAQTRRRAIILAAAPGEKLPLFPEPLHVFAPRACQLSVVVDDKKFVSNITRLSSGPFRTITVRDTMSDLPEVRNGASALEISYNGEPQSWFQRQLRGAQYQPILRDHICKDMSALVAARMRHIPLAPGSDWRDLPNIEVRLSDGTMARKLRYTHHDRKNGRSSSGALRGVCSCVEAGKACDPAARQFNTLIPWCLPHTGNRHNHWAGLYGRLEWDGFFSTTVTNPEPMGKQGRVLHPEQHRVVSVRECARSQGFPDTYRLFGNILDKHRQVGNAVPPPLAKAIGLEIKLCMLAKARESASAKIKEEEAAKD

Take `COc1cc2c(NC3CCN(C)CC3)cc(N3CCN(C)CC3)nc2cc1OCCCN1CCCC1` [Compound 1-02]: the results for the IC50 against human G9a enzyme and on DNMT1 were < 100 nM and 500 to 1000 nM, respectively.
In the same order, the values of `COc1cc(NC2CCN(C)CC2)c2cc(OC)c(OCCCN3CCCC3)cc2n1` [Compound 2-01] are 100 to 500 nM and 1000 to 10000 nM.
In the same order, the values of `COc1cc2c(NCCC(F)(F)F)cc(-c3ccc(C)o3)nc2cc1OCCCN1CCCC1` [Compound 3-11] are 100 to 500 nM and 1000 to 10000 nM.
In the same order, the values of `COCCNc1cc(-c2ccc(C)o2)nc2cc(OCCCN3CCCC3)c(OC)cc12` [Compound 3-12] are 100 to 500 nM and 1000 to 10000 nM.
On to `COc1cc2c(NCC3CCCC3)cc(-c3ccc(C)o3)nc2cc1OCCCN1CCCC1` [Compound 3-14], for which the IC50 at human G9a enzyme and against DNMT1 was 1000 to 10000 nM in each case.
For the molecule `COc1cc2c(NC3CCOCC3)cc(-c3ccc(C)o3)nc2cc1OCCCN1CCCC1` [Compound 3-16], the IC50 (commonly the point on the concentration scale where inhibition reaches its midpoint) was 100 to 500 nM against human G9a enzyme and 1000 to 10000 nM at DNMT1.
Consider `COc1cc2c(NC3CCNC(=O)C3)cc(-c3ccc(C)o3)nc2cc1OCCCN1CCCC1` (centres unmarked) [Compound 3-18], for which the IC50 was in the range of 100 to 500 nM against human G9a enzyme and 1000 to 10000 nM at DNMT1.
In the same order, the values of `COc1cc2c(NC3CCN(C)CC3)cc(C)nc2cc1OCCCN1CCCC1` [Compound 3-23] are < 100 nM and 500 to 1000 nM.
In the same order, the values of `COc1cc2c(NC3CCN(C)CC3)cc(-c3cc4ccccc4o3)nc2cc1OCCCN1CCCC1` [Compound 3-25] are 1000 to 10000 nM and 1000 to 10000 nM.
In the case of `COc1cc2c(NC3CCN(C)CC3)cc(-c3cccnc3)nc2cc1OCCCN1CCCC1` [Compound 3-30], the IC50 was < 100 nM at human G9a enzyme and 1000 to 10000 nM against DNMT1.
In the same order, the values of `COc1cc2c(NC3CCN(C)CC3)cc(-c3ccc(-c4ccccc4)o3)nc2cc1OCCCN1CCCC1` [Compound 3-32] are 1000 to 10000 nM and 1000 to 10000 nM.
In the same order, the values of `COc1cc2c(NC3CCN(C)CC3)cc(-c3ccn(C)n3)nc2cc1OCCCN1CCCC1` [Compound 3-33] are < 100 nM and 1000 to 10000 nM.
In the same order, the values of `COc1cc2c(NC3CCN(C)CC3)cc(-c3ccccc3C)nc2cc1OCCCN1CCCC1` [Compound 3-34] are < 100 nM and 1000 to 10000 nM.
As to `COc1cc2c(NC3CCN(C)CC3)cc(-c3cc(C)oc3C)nc2cc1OCCCN1CCCC1` [Compound 3-35], the IC50 against human G9a enzyme is < 100 nM; against DNMT1, 500 to 1000 nM.
On to `COc1cc2c(NC3CCN(C)CC3)cc(-c3cc[nH]c(=O)c3)nc2cc1OCCCN1CCCC1` [Compound 3-37], for which the half-maximal inhibitory concentration (IC50) against human G9a enzyme lay within 100 to 500 nM; on DNMT1, 1000 to 10000 nM.
In the same order, the values of `COc1cc2c(NC3CCCC3)cc(-c3ccc(C)[nH]3)nc2cc1OCCCN1CCCC1` [Compound 3-38] are < 100 nM and 100 to 500 nM.
In the same order, the values of `COc1cc2c(NC3CCC(C)(O)CC3)cc(-c3ccc(C)o3)nc2cc1OCCCN1CCCC1` (centres unmarked) [Compound 3-45] are 100 to 500 nM and 1000 to 10000 nM.
In the same order, the values of `COc1cc2c(NC3CCC34CCNCC4)cc(-c3ccc(C)o3)nc2cc1OCCCN1CCCC1` (centres unmarked) [Compound 4-01, N-(7-azaspiro[3.5]nonan-3-yl)-6-methoxy-2-(5-methyl-2-furyl)-7-(3-pyrrolidin-1-ylpropoxy)quinolin-4-amine; 2,2,2-trifluoroacetic acid] are < 100 nM and 100 to 500 nM.
On to `COc1cc2c(NC3CC4(CCNCC4)C3)cc(-c3ccc(C)[nH]3)nc2cc1OCCCN1CCCC1` [Compound 4-02, N-(7-azaspiro[3.5]nonan-2-yl)-6-methoxy-2-(5-methyl-1H-pyrrol-2-yl)-7-(3-pyrrolidin-1-ylpropoxy)quinolin-4 amine; hydrochloride], for which the results for the IC50 against human G9a enzyme and on DNMT1 were < 100 nM and 1000 to 10000 nM, respectively.
In the same order, the values of `COc1cc2c(NC3CCN(C)CC3)cc(C3=CCOCC3)nc2cc1OCCCN1CCCC1` [Compound 6-02] are < 100 nM and 500 to 1000 nM.
In the same order, the values of `COc1cc2c(NC3CCN(C)CC3)cc(C3CCCCC3)nc2cc1OCCCN1CCCC1` [Compound 7-01, 2-cyclohexyl-6-methoxy-N-(1-methyl-4-piperidyl)-7-(3-pyrrolidin-1-ylpropoxy)quinolin-4-amine; 2,2,2-trifluoroacetic acid] are < 100 nM and 100 to 500 nM.
In the same order, the values of `COc1cc2c(NC3CCN(C)CC3)cc(C3CCOCC3)nc2cc1OCCCN1CCCC1` [Compound 7-02, 6-methoxy-N-(1-methyl-4-piperidyl)-7-(3-pyrrolidin-1-ylpropoxy)-2-tetrahydropyran-4-yl-quinolin-4-amine; 2,2,2-trifluoroacetic acid] are < 100 nM and 1000 to 10000 nM.
In the case of `COc1cc2c(NC3CCNCC3)cc(C3CCCCC3)nc2cc1OCCCN1CCCC1` [Compound 7-04, 2-cyclohexyl-6-methoxy-N-(4-piperidyl)-7-(3-pyrrolidin-1-ylpropoxy)quinolin-4-amine; 2,2,2-trifluoroacetic acid], the IC50 was < 100 nM against human G9a enzyme and 500 to 1000 nM against DNMT1.
In the same order, the values of `COc1cc2c(NC3CCN(C)CC3)cc(-c3ccc(CN(C)C)o3)nc2cc1OCCCN1CCCC1` [Compound 8-01, 2-[5-[(dimethylamino)methyl]-2-furyl]-6-methoxy-N-(1-methyl-4-piperidyl)-7-(3-pyrrolidin-1-ylpropoxy)quinolin-4-amine; 2,2,2-trifluoroacetic acid] are 100 to 500 nM and 1000 to 10000 nM.
In the same order, the values of `CCNCc1ccc(-c2cc(NC3CCN(C)CC3)c3cc(OC)c(OCCCN4CCCC4)cc3n2)o1` [Compound 8-02] are < 100 nM and 500 to 1000 nM.
Turning to `COc1cc2c(NC3CCN(C)CC3)cc(-c3ccc(CO)o3)nc2cc1OCCCN1CCCC1` [Compound 9-01, [5-[6-methoxy-4-[(1-methyl-4-piperidyl)amino]-7-(3-pyrrolidin-1-ylpropoxy)-2-quinolyl]-2-furyl]methanol; 2,2,2-trifluoroacetic acid], the IC50 is < 100 nM at human G9a enzyme and 500 to 1000 nM against DNMT1.
With `COc1cc2c(NC3CCN(C)CC3)cc(-c3ccc(C#N)o3)nc2cc1OCCCN1CCCC1` [Compound 10-01, 5-[6-methoxy-4-[(1-methyl-4-piperidyl)-amino]-7-(3-pyrrolidin-1-ylpropoxy)-2-quinolyl]furan-2-carbonitrile; 2,2,2-trifluoroacetic acid], the figures for the IC50 against human G9a enzyme and against DNMT1 were 100 to 500 nM and 1000 to 10000 nM, respectively.
In the same order, the values of `CCc1ccc(-c2cc(NC3CCN(C)CC3)c3cc(OC)c(OCC4CCNCC4)cc3n2)o1` [Compound 11-03] are 1000 to 10000 nM and 500 to 1000 nM.
In the case of `COc1cc2c(NCC3CCN(C)CC3)cc(-c3ccc(C)[nH]3)nc2cc1OCC1CCNCC1` [Compound 11-06], the IC50 on human G9a enzyme and against DNMT1 was 100 to 500 nM throughout.
Take `COc1cc2c(NCC3CCN(C)C(=O)C3)cc(-c3ccc(C)[nH]3)nc2cc1OCC1CCNCC1` (centres unmarked) [Compound 11-07]: the concentration for half-maximal inhibition (IC50) against human G9a enzyme and against DNMT1 was 500 to 1000 nM in each case.
As to `COc1cc2c(NC3CC3)cc(-c3ccc(C)[nH]3)nc2cc1OCC1CCNCC1` [Compound 11-08], the IC50 at human G9a enzyme and against DNMT1 was 1000 to 10000 nM each time.
